Like-named read-outs stand apart in the source and are kept apart here.
System: G. stearothermophilus spores
Conditions: for Average Log Reduction: nominal 0.35 ppm H2O2, blades exposed serially; for Average Log Reduction / AVERAGE LOG REDUCTION: [H2O2] average, low; for AVERAGE LOG REDUCTION: nominal 0.6 ppm H2O2 vapor from urea complex, 6×10^4 spores per blade
Procedure: Stainless steel scalpel blades were inoculated with 10 μL of inoculum containing 6×10^4 spores. The inoculum was then dried on the blade surface. Nine inoculated blades where placed in a 1 ft^3 sealed chamber constructed of acrylic. In the chamber a urea complex was confined in a glass tube with a flow restriction that allowed the concentration of peroxide in the chamber to be controlled. Three identically-inoculated blades where placed inside a covered petrie dish and placed near the chamber to serve as controls. At three day intervals, three blades were retrieved from the chamber as well as one control. These blades were subjected to a standard recovery, plating and incubation procedure from which the viable spore count and log reduction could be determined.

SMILES: OO [hydrogen peroxide]
- Average Log Reduction (after 3 days exposure, high 0.35, 0.2, 0.5 ppm): 1.12
- Average Log Reduction (after 7 days exposure, high 0.30, 0.2, 0.5 ppm): 1.83
- Average Log Reduction (after 9 days exposure, high 0.39, 0.2, 0.6 ppm): ≧4.0
- AVERAGE LOG REDUCTION (after 3 days exposure, high 0.56, 0.40, 0.83 ppm): 1.5
- AVERAGE LOG REDUCTION (after 6 days exposure, high 0.66, 0.40, 0.83 ppm): 2.7
- AVERAGE LOG REDUCTION (after 9 days exposure, high 0.66, 0.40, 0.95 ppm): ≧4.8
- log reduction in G. stearothermophilus spores per day (nominal concentration of 0.6 ppm of hydrogen peroxide, from Table 1): ~0.5
